From US10137185B2, “PAP peptide analogues” (THE NOTTINGHAM TRENT UNIVERSITY, priority 2014, dated 2018)
Several values for one entry are separate records, joined by “and”; a condition that tells them apart may be missing. Equal entries are not always repeated.

System: PBMCs isolated from patients with prostate cancer
Assay: IFNγ ELISPOT of pre- and post-vaccination PBMCs, Norway clinical trial (mRNA-transfected DC vaccine)
Assay type: cell-based, human
Conditions: for post-vaccination samples with significantly higher peptide-specific IFNγ response than pre-vaccination: of 8 responder samples, 48 hours
Text: FIG. 4. The flow chart of Norway clinical trial. Monocytes were isolated from patients with prostate cancer and cultured in vitro. mRNA isolated from the prostate cancer cell lines DU145, LNCAP and PC3 were transfected into immature dendritic cells (DCs). The DCs were then allowed to mature and were re-infused back into the patient. PBMCs isolated a week before (pre-vaccination) and 12 weeks after immunisations (post-vaccination) were used in this study. The patients were categorised as responders and non-responders based on the PSA levels and also metastatic state of the disease based on bone scans post immunisation.
FIG. 5. IFNγ response of PBMCs isolated from patients with prostate cancer who had responded to the therapy and were categorised as being ‘responders’ on the basis of the criteria detailed above (Norway Clinical Trial) after re-stimulation with PAP-115-123 epitope peptide (10 μg), as determined using the ELISPOT assay. PBMCs isolated pre-vaccination (black bars) and post vaccination (red bars) are compared. Patient samples are represented as p10, p12, p15 etc. The cryopreserved PBMCs were washed and rested overnight, at which time 4×10^4 cells were added to each well of an ELISPOT plate. PAP-115-123 epitope peptide (10 μg) was added to each well and the cells cultured for 48 hours. The plates were then washed according to the manufacturer's protocol. PBMCs cultured with an HIV-derived peptide or no added peptide were used as controls. Comparisons of means (±SEM) between groups (pre-vaccination or post-vaccination PBMCs) are made using an unpaired t test.
FIG. 6. IFNγ response of PBMCs isolated from patients with prostate cancer who had responded to the therapy and were categorised as being ‘responders’ on the basis of the criteria detailed above after re-stimulation with PAP-115-123 epitope peptide (1 μg), as determined using the ELISPOT assay. PBMCs isolated pre-vaccination (black bars) and post-vaccination (red bars) are compared here. Patient samples are represented as p10, p12, p15 etc. The cryopreserved PBMCs were washed and rested overnight, at which time 4×10^4 cells were added to each well of an ELISPOT plate. PAP-115-123 epitope peptide (1 μg) was added to each well and the cells cultured for 48 hours. The plates were then washed according to manufacturer's protocol. PBMCs cultured with HIV-derived peptide or no added peptide were used as controls. Comparisons of means (±SEM) between groups (pre-vaccination or post-vaccination PBMCs) are made using an unpaired t test.
FIG. 7. Fold change in the IFNγ response generated by PBMCs isolated from patients with prostate cancer from the Norway Clinical Trial after restimulation with PAP-115-123 epitope peptide (10 μg), as determined using the ELISPOT assay. Patients that were reported to have responded to the treatment (p10, p12, p15, p19, p101, p102, p107, p108) are indicated by red bars. […] The cryopreserved PBMCs were washed and rested overnight, at which time 4×10^4 cells were added to each well of an ELISPOT plate. PAP-115-123 epitope peptide (10 μg) was added to each well and the plates cultured for 48 hours. The plates were then washed according to the manufacturer's protocol. PBMCs cultured with HIV-derived peptide or no added peptide were used as control.
The presence of circulating PAP-115-123 specific T cells in PBMCs isolated from patients with prostate cancer following treatment with DCs that had been transfected with mRNA isolated from the prostate cancer cell lines (DU145, LNCaP and PC3) as part of a Norwegian Clinical Trial which was performed by Professor Gustav Gaudernack was determined on the basis of their responsiveness to PAP-derived peptides. In the trial, DCs were isolated from patients with prostate cancer and cultured DCs were transfected with mRNA isolated from the prostate cancer cell lines (DU145, LNCaP and PC3). The matured DCs were re-infused back into the patients (FIG. 4). […]

## SAMTNLAAL [PAP-115-123]
1 μg peptide
  number of spots, pre-vaccination samples: 10-30 spots
  post-vaccination samples with significantly higher peptide-specific IFNγ response than pre-vaccination: 6
1 μg peptide, patients p12, p19, p101, p102, p107, p108
  number of spots, post-vaccination samples: 60-140 spots
10 μg peptide
  number of spots, pre-vaccination samples: 10-30 spots
  post-vaccination samples with significantly higher peptide-specific IFNγ response than pre-vaccination: 6
10 μg peptide, patients p12, p15, p19, p102, p107, p108
  number of spots, post-vaccination samples: 60-160 spots
4 non-responder patients, 10 μg peptide, ELISPOT
  fold decrease in IFNγ response post vs pre vaccination, non-responders: 2-12 fold and 2-10 fold
8 responder patients, 10 μg peptide, ELISPOT
  fold higher peptide-specific IFNγ response post vs pre vaccination, responders: 2-4 fold
